According to article PMC9602571, “Discovery of a Dual SENP1 and SENP2 Inhibitor” (International Journal of Molecular Sciences, 2022):

Target: T1, SENP1 (Homo sapiens, UniProt Q9P0U3)
T1 construct: Human recombinant, His6-SENP1 Catalytic Domain; His6 (N); purchased Boston Biochem (Bio-Techne AG) E-700
T1 sequence (Q9P0U3 450-613 limits assumed): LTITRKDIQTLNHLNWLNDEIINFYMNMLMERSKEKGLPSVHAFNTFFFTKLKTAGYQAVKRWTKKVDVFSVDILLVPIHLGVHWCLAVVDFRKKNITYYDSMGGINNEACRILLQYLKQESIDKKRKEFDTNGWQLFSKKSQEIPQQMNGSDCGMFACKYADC
Experiment: Fluorogenic SENP1 assay, SUMO3-AMC substrate
Format: biochemical
Details: n = 2
Experimental: Human recombinant, His6-SENP1 Catalytic Domain (Boston Biochem Cat# E-700, Bio-Techne AG, Zug, Switzerland) was prepared in reaction buffer (50 mM HEPES, 150 mM NaCl, 0.5 mM EDTA, 1 mM DTT, pH 7.5, 0.01% CHAPS). To this solution, a 20 mM or 50 mM inhibitor stock solution in DMSO was added and the mixture was incubated for 15 min at ambient temperature. […] The data were analyzed by taking the slope (signal/time) of the linear portion of measurement. The slope was calculated using Excel and the curve fits were performed using GraphPad Prism7 with a four-parameter least-squares fit. The final reaction conditions contained 0.02 nM SENP1 and 300 nM SUMO1/2 or 3-AMC).

- IC50: 59 µM
SMILES: O=C(Cn1nnc(-c2ccccc2)n1)N1c2ccccc2NC(=O)C12CCCC2 [Compound 11, 1′-[2-(5-Phenyl-2H-1,2,3,4-tetrazol-2-yl)acetyl]-3′,4′-dihydro-1′H-spiro[cyclopentane-1,2′-quinoxalin]-3′-one]
